Key:
Assay type in all cases: in vivo
Huaidao (rice cultivar) = experiment: Seedling stage sealing experiment for water-seeding (crop safety); conditions: 120 g a.i./ha, 15 days, fresh weight control rate; for Huaidao (rice cultivar) plant damage level (growth control rate): spray, seedling stage sealing for water-seeding
Procedure, shortened: (§1)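 Seeds broadcast on soil in nutrition bowls, covered, kept moist in a water-filled box; compound in acetone diluted with water and spray-tower applied at 120, 60, 30 and 15 g a.i./ha, triplicate. Scored after 15 days in greenhouse on a 0–9 scale of fresh-weight growth control, averaged.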

Echinochloa phyllopogon = experiment: Seedling stage sealing experiment for water-seeding; conditions: 120 g a.i./ha, 15 days, fresh weight control rate
Procedure, shortened: as §1

Echinochloa crusgalli = experiment: as above; conditions: 120 g a.i./ha, 15 days, fresh weight control rate
[1] = spray, seedling stage sealing for water-seeding

Row | SMILES | Huaidao (rice cultivar) plant damage level (growth control rate) (Huaidao (rice cultivar)) | Echinochloa phyllopogon activity level (growth control rate) (Echinochloa phyllopogon; [1]) | Echinochloa crusgalli activity level (growth control rate) (Echinochloa crusgalli; [1]) | Huaidao (rice cultivar) plant damage level (Huaidao (rice cultivar); seedling stage sealing) | Echinochloa phyllopogon activity level (growth control rate) (Echinochloa phyllopogon; seedling stage sealing) | Echinochloa crusgalli activity level (growth control rate) (Echinochloa crusgalli; seedling stage sealing)
1 | Cc1ccc([C@H]2CN(C)C(=O)[C@@H]2C(=O)Nc2cnn(C(F)F)c2Cl)cc1 [486′] | 2 (Level 2: growth control rate greater than or equal to 10% and less than 20%) | 9 | 9 |  |  | 
2 | Cc1ccc([C@H]2CN(C)C(=O)[C@@H]2C(=O)Nc2cnn(C(F)F)c2Cl)cc1C [487′] | 2 (Level 2: growth control rate greater than or equal to 10% and less than 20%) | 9 | 9 |  |  | 
3 | CN1C[C@H](c2cc(F)cc(F)c2)[C@@H](C(=O)Nc2cnn(C)c2C(F)(F)F)C1=O [489′] | 0 | 9 | 9 |  |  | 
4 | Cc1cc(C)cc([C@H]2CN(C)C(=O)[C@@H]2C(=O)Nc2cnn(C(F)F)c2C)c1 [494′] | 2 (Level 2: growth control rate greater than or equal to 10% and less than 20%) | 9 | 9 |  |  | 
5 | Cc1cc(C)cc([C@H]2CN(C)C(=O)[C@@H]2C(=O)Nc2cnn(C)c2CF)c1 [495′] | 0 | 7 (Level 7: growth control rate greater than or equal to 80% and less than 90%) | 9 |  |  | 
6 | C=Cc1c(NC(=O)[C@H]2C(=O)N(C)C[C@@H]2c2cc(C)cc(C)c2)cnn1C(F)F [496′] | 0 | 9 | 9 |  |  | 
7 | Cc1cc(C)cc([C@H]2CN(C)C(=O)[C@@H]2C(=O)Nc2cnn(C)c2S(C)(=O)=O)c1 [498′] | 0 | 9 | 9 |  |  | 
8 | CO/N=C/c1c(NC(=O)[C@H]2C(=O)N(C)C[C@@H]2c2cc(C)cc(C)c2)cnn1C [501′] | 0 | 7 (Level 7: growth control rate greater than or equal to 80% and less than 90%) | 9 |  |  | 
9 | Cc1cc(C)cc([C@H]2CN(C)C(=O)[C@@H]2C(=O)Nc2cnn(C)c2CO)c1 [502′] | 0 | 7 (Level 7: growth control rate greater than or equal to 80% and less than 90%) | 9 |  |  | 
10 | Cc1cc(Cl)cc([C@H]2CN(C)C(=O)[C@@H]2C(=O)Nc2cnn(C(F)F)c2Cl)c1 [505′] | 2 (Level 2: growth control rate greater than or equal to 10% and less than 20%) | 9 | 9 |  |  | 
11 | Cc1cc(Cl)cc([C@H]2CN(C)C(=O)[C@@H]2C(=O)Nc2cnn(C)c2C2CC2)c1 [506′] | 0 | 9 | 9 |  |  | 
12 | CN1C[C@H](c2cc(F)cc(Cl)c2)[C@@H](C(=O)Nc2cnn(C)c2Cl)C1=O [507′] | 0 | 9 | 9 |  |  | 
13 | CN1C[C@H](c2cc(C(F)(F)F)cc(C(F)(F)F)c2)[C@@H](C(=O)Nc2cnn(C)c2C2CC2)C1=O [510′] | 2 (Level 2: growth control rate greater than or equal to 10% and less than 20%) | 9 | 9 |  |  | 
14 | CN1C[C@H](c2cc(Br)cc(C(F)F)c2)[C@@H](C(=O)Nc2cnn(C)c2Cl)C1=O [511′] | 0 | 6 (Level 6: growth control rate greater than or equal to 70% and less than 80%) | 9 |  |  | 
15 | CN1C[C@H](c2cc(Br)cc(C(F)F)c2)[C@@H](C(=O)Nc2cnn(C(F)F)c2Cl)C1=O [512′] | 0 | 7 (Level 7: growth control rate greater than or equal to 80% and less than 90%) | 9 |  |  | 
16 | CN1C[C@H](c2cc(Br)cc(C(F)(F)F)c2)[C@@H](C(=O)Nc2cnn(C)c2C2CC2)C1=O [514′] | 0 | 6 (Level 6: growth control rate greater than or equal to 70% and less than 80%) | 9 |  |  | 
17 | Cc1cc([C@H]2CN(C)C(=O)[C@@H]2C(=O)Nc2cnn(C)c2Br)cc(C)c1C [516′] | 0 | 9 | 9 |  |  | 
18 | Cc1cc([C@H]2CN(C)C(=O)[C@@H]2C(=O)Nc2cnn(C)c2C#N)cc(C)c1C [518′] | 0 | 9 | 9 |  |  | 
19 | CN1C[C@H](c2cc(Cl)cc(Cl)c2)[C@@H](C(=O)Nc2cnn(C)c2Cl)C1=O [519′] | 1 (Level 1: growth control rate less than 10%) | 9 | 9 |  |  | 
20 | Cc1csc([C@H]2CN(C)C(=O)[C@@H]2C(=O)Nc2cnn(C)c2Cl)c1 [520′] | 0 | 7 (Level 7: growth control rate greater than or equal to 80% and less than 90%) | 9 |  |  | 
21 | CN1CC(c2cccc(C(F)(F)F)c2)C(C(=O)Nc2c(Cl)nn(C)c2Cl)C1=O (stereo not drawn) [Compound 94] |  |  |  | 0 | 5 (Level 5: growth control rate greater than or equal to 50% and less than 70%) | 5 (Level 5: growth control rate greater than or equal to 50% and less than 70%)
22 | Cc1cc(C2CN(C)C(=O)C2C(=O)Nc2cnn(C)c2C(F)(F)F)cc(C)c1C (stereo not drawn) [Compound 517] | 0 | 9 | 9 |  |  | 

From patent US20260223850A1, “SUBSTITUTED PYRROLIDONE COMPOUND, PREPARATION METHOD THEREFOR, COMPOSITION AND APPLICATION THEREOF” (QINGDAO KINGAGROOT CHEMICAL COMPOUND CO., LTD., priority 2023, published 2026)
